Tests used:
[1] = system: AF9, AFF4, cyclin-T1, DOT1L; test: Other SEC-related proteins in nucleus of MV4;11 cells (Western blot); format: cell-based; details: 4 days
Excerpt: We further investigated how compound 1 affects ENL, AF9 and other proteins of SEC in the cytoplasmic and nuclear compartments, the latter of which are more relevant to the functions of these transcription cofactors. […] Upon treatment of MV4;11 cells with these compounds for 4 days, cytoplasmic and nuclear proteins were separated and subjected to SDS-PAGE/Western blot. […] In addition, nuclear levels of H3K79 methylation, the product of DOT1L catalyzed reactions, were not consistently affected by compound 1.
3 × 10^6 cells/well were treated with increasing concentrations of a compound for 1 day, and whole proteins were extracted. Equal amounts of proteins were separated on SDS-PAGE and transferred to PVDF membranes. The blots were probed with primary antibodies, followed by anti-rabbit IgG (Thermo Scientific) secondary antibodies. The primary antibodies against ENL (Cell signaling #14893), AF9 (Novusbio #NB100-1565), DOT1L (Cell signaling #77087), AFF4 (Abcam #ab103586), Cyclin T1 (Cell signaling #81464), H3K79me2 (Cell signaling #5427), H3K79me1 (Cell signaling #9398), Histone H3 (Cell signaling #4499), FLAG (Sigma-Aldrich #F1804), β-Actin (Cell signaling #4970) were used in this study.

[2] = system: blood and solid tumor cells; test: Antiproliferation assay, ranges given over several cell lines; format: cell-based; details: AML Kasumi-1, myeloma RPMI-8226 and U266; read-out: EC50 against Kasumi-1, RPMI-8226 and U266 cells (range over cell lines)
Description: (§1) Proliferation inhibition assays for suspension blood cancer cells were performed using an XTT assay kit (Biotium), following our previous methods [22]. EC50 values were determined using Prism 5 and from at least three independent experiments.

[3] = system: HoxA11 and HoxA13; test: qPCR expression of HoxA11 and HoxA13 in mENL-transfected HEK293T cells; format: cell-based; details: 0.04 μg of the plasmid, 24 h incubation
Description: Next, we investigated how mENL degradation affect expression of HoxA11 and HoxA13 in this cell model.
5 × 10^5 HEK293T cells were transfected with mENL containing pcDNA3.1(+)-N-DYK plasmid using jetPRIME (Polyplus Transfection) following the manufacturer's protocol. Upon transfection for 4 h, the media were carefully removed and the cells incubated with fresh media containing the specified concentrations of compound 1 for 24 h before further analysis (using Western blot or qPCR as described above).

[4] = system: Hela cells; test: Antiproliferation assay, Hela; details: Homo sapiens, 168 h, read-out: Antiproliferative activity, EC50, Hela
[5] = system: Panc1 cells; test: Antiproliferation assay, Panc1; details: Homo sapiens, PANC-1, 168 h, read-out: Antiproliferative activity, EC50, Panc1
[6] = system: U266 cells; test: Antiproliferation assay (XTT), U266; details: Homo sapiens, U-266, 168 h, read-out: Antiproliferative activity, EC50, U266
Description: as §1

[7] = system: MV4;11 cells; test: Antiproliferation assay (XTT), MV4;11; details: Homo sapiens, MV4-11, 168 h, read-out: EC50 against proliferation of MV4;11 cells
Description: as §1

[8] = system: Kasumi-1 cells; test: Antiproliferation assay (XTT), Kasumi-1; details: Homo sapiens, Kasumi 1, 168 h, read-out: Antiproliferative activity, EC50, Kasumi-1
Description: as §1

[9] = system: RPMI-8226 cells; test: Antiproliferation assay (XTT), RPMI-8226; details: Homo sapiens, RPMI-8226, 168 h, read-out: Antiproliferative activity, EC50, RPMI-8226
Description: as §1

[10] = molecular target: T1, ENL (Homo sapiens, UniProt Q03111); test: ChIP-qPCR, ENL at gene promoters of Myc and HoxA9; format: cell-based; set-up: endogenous in cells; host or cells: MV4;11; details: MV4;11 cells, 500 nM, 4 days
T1 sequence (Q03111 1-559): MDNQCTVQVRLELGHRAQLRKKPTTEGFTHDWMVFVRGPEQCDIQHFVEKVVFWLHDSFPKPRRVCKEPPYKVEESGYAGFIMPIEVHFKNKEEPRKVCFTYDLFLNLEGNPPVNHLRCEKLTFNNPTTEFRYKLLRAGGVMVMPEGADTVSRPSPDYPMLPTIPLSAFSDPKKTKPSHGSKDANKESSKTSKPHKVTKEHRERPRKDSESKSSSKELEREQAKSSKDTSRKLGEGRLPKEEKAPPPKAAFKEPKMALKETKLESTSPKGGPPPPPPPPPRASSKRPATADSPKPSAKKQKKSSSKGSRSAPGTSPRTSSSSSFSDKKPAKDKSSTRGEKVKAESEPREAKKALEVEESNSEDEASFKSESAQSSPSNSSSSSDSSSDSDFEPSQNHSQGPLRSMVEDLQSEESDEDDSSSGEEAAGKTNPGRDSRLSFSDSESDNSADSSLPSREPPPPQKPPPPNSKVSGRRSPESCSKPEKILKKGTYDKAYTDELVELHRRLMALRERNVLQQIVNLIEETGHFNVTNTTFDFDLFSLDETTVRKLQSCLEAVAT
Description: Chromatin immunoprecipitation (ChIP) followed by qPCR was used to further probe the activity of compound 1 in the gene promoters of Myc and HoxA9, two characteristic MLL1 target genes.
Upon treatment with a compound for 4 days, 10^7 MV4;11 cells were cross-linked with 1% formaldehyde at room temperature for 10 min, followed by the addition of 125 mM glycine. Cells were lysed with nuclear lysis buffer and sonicated to ~ 100–1000 bp fragments, which was incubated at 4 °C overnight with an antibody and IgG (C15410206, Diagenode). Protein A/G Magnetic Beads (10 µL, Novus Biologicals) were added and incubated for 2 h. The beads were washed 3 × with RIPA buffer and 2 × with TE buffer. DNA on the beads was eluted for 2 h at 68 °C in 100 μL of an elution buffer (20 mM Tris pH 7.5, 5 mM EDTA, 50 mM NaCl, 1% SDS, 50 μg/mL proteinase K) (2 ×), and purified using a ChIP DNA Clean & Concentrator kit (Novus Biologicals). qPCR was done using the method described above.

For `C[C@H]1CCCN1Cc1nc2cc(NC(=O)c3ccc4c(cnn4CCCCCCCCNc4cccc5c4C(=O)N(C4CCC(=O)NC4=O)C5=O)c3)ccc2[nH]1` (stereo partly shown) [Compound 1], the “Levels of AF9, AFF4, cyclin-T1 and DOT1L” value [1] was “not significantly decreased”, the EC50 [2] was 1100 to 4100 nM and the “Overexpression of HoxA11 and HoxA13” value [3] was “significantly inhibited overexpression”. It also gave an EC50 [4] greater than 50000 nM, an EC50 [5] greater than 50000 nM and an EC50 [6] of 4100 ± 1800 nM. For the same compound, the EC50 [7] was 570 nM, the EC50 [8] was 1100 ± 30 nM and the EC50 [9] was 1200 ± 230 nM. For the same compound, the “ENL levels at gene promoters of Myc and HoxA9” value [10] was “significantly reduced”.
